Data published in US11254668B2, “Pyrazolo[1,5-A]pyrazin-4-yl and related derivatives” (Pfizer Inc., priority 2017, dated 2022).
Read-outs that look alike come from different tables or passages of the source. One block for each compound: values may come before it.

What was measured:
Type in all cases: biochemical
[1] = biological target: TYK2 (Homo sapiens (Human), UniProt P29597); test: JAK Caliper Enzyme Assay at 1 mM ATP, TYK2
Description: (§1) Compounds of the invention were evaluated by in vitro methods to determine their respective ability to inhibit the JAK kinases (TYK2, JAK1, JAK2, JAK3).
(§2) The human JAK inhibitory activity was determined by using a microfluidic assay to monitor phosphorylation of a synthetic peptide by the recombinant human kinase domain of each of the four members of the JAK family, JAK1, JAK2, JAK3 and TYK2. […] Each assay condition was optimized for enzyme concentration and room temperature incubation time to obtain a conversion rate of 20% to 30% phosphorylated peptide product. Reactions were terminated by the addition of stop buffer containing EDTA. Utilizing the LabChip 3000 mobility shift technology (Caliper Life Science), each assay reaction was sampled to determine the level of phosphorylation. This technology is separation-based, allowing direct detection of fluorescently labeled substrates and products. Separations are controlled by a combination of vacuum pressure and electric field strength optimized for each peptide substrate.
(§3) JAK Caliper Enzyme Assay at 1mM ATP
(§4) Compounds were added to a 384-well plate.
(§5) The data was collected using the HTS Well Analyzer software from Caliper Life Sciences. The data output for data analysis is the percent product converted calculated on peak height (Equation 1). % product converted=100*((product)/(product+substrate)) Equation 1: […]
(§6) The percent effect at each compound concentration was calculated based on the positive and negative control well contained within each assay plate (Equation 2). […] The negative control wells contained DMSO alone (at the same concentration as the compound wells) that was used to set the baseline activity in the assay (i.e., uninhibited JAK1, JAK2, JAK3 or TYK2). % effect=100*([…](positive control-negative control)) Equation 2: […]
(§7) The percent effect was plotted against the compound concentration compound.

[2] = biological target: JAK1 (Homo sapiens (Human), UniProt P23458); test: JAK Caliper Enzyme Assay at 1 mM ATP, JAK1
Description: as §1, §2, §3, §4, §5, §6, §7

[3] = biological target: JAK3 (Homo sapiens (Human), UniProt P52333); test: JAK Caliper Enzyme Assay at 1 mM ATP, JAK3
Description: as §1, §2, §3, §4, §5, §6, §7

Sequence of JAK3 (P52333 822-1111): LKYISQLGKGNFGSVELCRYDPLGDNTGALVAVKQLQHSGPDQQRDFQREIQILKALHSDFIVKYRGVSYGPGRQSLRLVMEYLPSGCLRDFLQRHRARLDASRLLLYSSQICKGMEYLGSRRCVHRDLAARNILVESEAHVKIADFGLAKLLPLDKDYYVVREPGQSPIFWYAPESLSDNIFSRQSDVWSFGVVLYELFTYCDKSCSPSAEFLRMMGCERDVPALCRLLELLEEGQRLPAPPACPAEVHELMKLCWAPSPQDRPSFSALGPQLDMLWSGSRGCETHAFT
Sequence of TYK2 (P29597 897-1176): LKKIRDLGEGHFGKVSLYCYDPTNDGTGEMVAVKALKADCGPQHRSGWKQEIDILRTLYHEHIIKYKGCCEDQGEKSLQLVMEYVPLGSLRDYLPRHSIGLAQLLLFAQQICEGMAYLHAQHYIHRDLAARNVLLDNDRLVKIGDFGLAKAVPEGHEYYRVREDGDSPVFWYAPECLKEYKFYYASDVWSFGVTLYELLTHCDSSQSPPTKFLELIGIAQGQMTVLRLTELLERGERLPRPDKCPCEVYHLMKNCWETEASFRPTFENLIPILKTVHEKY
Sequence of JAK1 (P23458 875-1153): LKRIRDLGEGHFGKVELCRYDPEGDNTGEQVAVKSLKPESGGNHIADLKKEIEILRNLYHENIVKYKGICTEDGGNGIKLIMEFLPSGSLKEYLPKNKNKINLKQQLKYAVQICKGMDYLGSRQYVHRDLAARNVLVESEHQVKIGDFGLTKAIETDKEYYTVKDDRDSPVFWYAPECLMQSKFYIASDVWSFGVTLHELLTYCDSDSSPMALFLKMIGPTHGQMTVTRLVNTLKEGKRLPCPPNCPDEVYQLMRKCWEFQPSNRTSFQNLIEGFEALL

- IC50 [1]: 15 nM
- IC50 [2]: 21 nM
- IC50 [3]: 1120 nM
Compound: N#CC[C@]1(n2cc(-c3nc(-c4cnn(CCO)c4)cc4ncccc34)cn2)C[C@@H](C#N)C1 [Example 6, cis-3-(cyanomethyl)-3-(4-{7-[1-(2-hydroxyethyl)-1H-pyrazol-4-yl]-1,6-naphthyridin-5-yl}-1H-pyrazol-1-yl)cyclobutanecarbonitrile]

- IC50 [1]: 89 nM
- IC50 [2]: 189 nM
- IC50 [3]: > 10000 nM
Compound: N#CC[C@]1(n2cc(-c3nc(-c4cnn(CCO)c4)cc4ncccc34)cn2)C[C@H](C#N)C1 [Example 7, trans-3-(cyanomethyl)-3-(4-{7-[1-(2-hydroxyethyl)-1H-pyrazol-4-yl]-1,6-naphthyridin-5-yl}-1H-pyrazol-1-yl)cyclobutanecarbonitrile]

- IC50 [1]: 20 nM
- IC50 [2]: 451 nM
- IC50 [3]: > 10000 nM
Compound: N#CCC1(n2ccc(-c3nc(-c4ccn[nH]4)cc4ncccc34)n2)CN(S(=O)(=O)C2CC2)C1 [Example 18, [1-(cyclopropylsulfonyl)-3-{3-[7-(1H-pyrazol-5-yl)-1,6-naphthyridin-5-yl]-1H-pyrazol-1-yl}azetidin-3-yl]acetonitrile]

- IC50 [1]: 850 nM
- IC50 [2]: 5700 nM
- IC50 [3]: > 10000 nM
Compound: CC(=O)N(C)C1CC(CC#N)(n2ccc(-c3nc(-c4cc[nH]n4)cc4ncccc34)n2)C1 (stereo not drawn) [Example 33, N-[trans-3-(cyanomethyl)-3-{3-[7-(1H-pyrazol-3-yl)-1,6-naphthyridin-5-yl]-pyrazol-1-yl}cyclobutyl]-N-methylacetamide]

- IC50 [1]: 238 nM
- IC50 [2]: 1700 nM
- IC50 [3]: > 10000 nM
Compound: CC(=O)N(C)[C@H]1C[C@](CC#N)(n2ccc(-c3nc(-c4cc[nH]n4)cc4ncccc34)n2)C1 [Example 34, N-[cis-3-(cyanomethyl)-3-{3-[7-(1H-pyrazol-3-yl)-1,6-naphthyridin-5-yl]-pyrazol-1-yl}cyclobutyl]-N-methylacetamide]

- IC50 [1]: 36 nM
- IC50 [2]: 1610 nM
- IC50 [3]: > 10000 nM
Compound: Cc1cc(-c2cc3ncccc3c(-c3ccn(C4(CC#N)CN(CC(F)(F)F)C4)n3)n2)n[nH]1 [Example 42, [3-{3-[7-(5-methyl-1H-pyrazol-3-yl)-1,6-naphthyridin-5-yl]-1H-pyrazol-1-yl}-1-(2,2,2-trifluoroethyl)azetidin-3-yl]acetonitrile]

- IC50 [1]: 153 nM
- IC50 [2]: > 10000 nM
- IC50 [3]: > 10000 nM
Compound: Cn1nc(-c2cc3ncccc3c(-c3ccn([C@]4(CC#N)C[C@@H](C#N)C4)n3)n2)cc1CO [Example 62, trans-3-(cyanomethyl)-3-(3-{7-[5-(hydroxymethyl)-1-methyl-1H-pyrazol-3-yl]-1,6-naphthyridin-5-yl}-1H-pyrazol-1-yl)cyclobutanecarbonitrile]

- IC50 [1]: 7 nM
- IC50 [2]: 155 nM
- IC50 [3]: 2500 nM
Compound: Cn1nc(-c2cc3ncccc3c(-c3ccn([C@]4(CC#N)C[C@H](C#N)C4)n3)n2)cc1N [Example 66, cis-3-{3-[7-(5-amino-1-methyl-1H-pyrazol-3-yl)-1,6-naphthyridin-5-yl]-1H-pyrazol-1-yl}-3-(cyanomethyl)cyclobutanecarbonitrile]

- IC50 [1]: 430 nM
- IC50 [2]: 2410 nM
- IC50 [3]: > 10000 nM
Compound: Cn1nccc1C1CC(CC#N)(n2ccc(-c3nc(-c4cn[nH]c4)cc4ncccc34)n2)C1 (stereo not drawn) [Example 86, [cis-3-(1-methyl-1H-pyrazol-5-yl)-1-{3-[7-(1H-pyrazol-4-yl)-1,6-naphthyridin-5-yl]-1H-pyrazol-1-yl}cyclobutyl]acetonitrile]

- IC50 [1]: 12 nM
- IC50 [2]: 43 nM
- IC50 [3]: 634 nM
Compound: CCn1cc(-c2cc3ncccc3c(-c3ccn(C4(CC#N)CC(C#N)C4)n3)n2)cn1 (stereo not drawn) [Example 112, cis-3-(cyanomethyl)-3-{3-[7-(1-ethyl-1H-pyrazol-4-yl)-1,6-naphthyridin-5-yl]-1H-pyrazol-1-yl}cyclobutanecarbonitrile]

- IC50 ([2]; JAK Caliper enzyme assay): 3900 nM
- IC50 ([3]; JAK Caliper enzyme assay): > 10000 nM
Compound: N#CC[C@]1(n2ncc(-c3cc(-c4cccc(C(N)=O)c4)cc4ncccc34)n2)C[C@@H](C#N)C1 [Example 432, 3-(5-{2-[trans-3-cyano-1-(cyanomethyl)cyclobutyl]-2H-1,2,3-triazol-4-yl}quinolin-7-yl)benzamide]

Further lines, the compound ahead of its results:

Compound: Cn1nc(-c2cc3ncccc3c(-c3ccn([C@]4(CC#N)C[C@H](C#N)C4)n3)n2)cc1CO [Example 63, cis-3-(cyanomethyl)-3-(3-{7-[5-(hydroxymethyl)-1-methyl-1H-pyrazol-3-yl]-1,6-naphthyridin-5-yl}-1H-pyrazol-1-yl)cyclobutanecarbonitrile]
- IC50 [1]: 17 nM
- IC50 [2]: 672 nM
- IC50 [3]: 6550 nM

Compound: Cn1nc(-c2cc3ncccc3c(-c3ccn([C@]4(CC#N)C[C@@H](C#N)C4)n3)n2)cc1N [Example 65, trans-3-{3-[7-(5-amino-1-methyl-1H-pyrazol-3-yl)-1,6-naphthyridin-5-yl]-1H-pyrazol-1-yl}-3-(cyanomethyl)cyclobutanecarbonitrile]
- IC50 [1]: 18 nM
- IC50 [2]: 1590 nM
- IC50 [3]: > 10000 nM

Compound: Cn1cc(-c2cc3ncccc3c(-c3ccn(C4(CC#N)CN(CC5CC5)C4)n3)n2)cn1 [Example 101, [1-(cyclopropylmethyl)-3-{3-[7-(1-methyl-1H-pyrazol-4-yl)-1,6-naphthyridin-5-yl]-1H-pyrazol-1-yl}azetidin-3-yl]acetonitrile]
- IC50 [1]: 73 nM
- IC50 [2]: 2040 nM
- IC50 [3]: > 10000 nM

Compound: CCn1cc(-c2cc3ncccc3c(-c3ccn([C@]4(CC#N)C[C@@H](C#N)C4)n3)n2)cn1 [Example 113, trans-3-(cyanomethyl)-3-{3-[7-(1-ethyl-1H-pyrazol-4-yl)-1,6-naphthyridin-5-yl]-1H-pyrazol-1-yl}cyclobutanecarbonitrile]
- IC50 [1]: 22 nM
- IC50 [2]: 409 nM
- IC50 [3]: 8970 nM

Compound: C=C(CO)n1cc(-c2cc3ncccc3c(-c3ccn(C4(CC#N)CN(S(C)(=O)=O)C4)n3)n2)cn1 [Example 131, [3-(3-{7-[1-(3-hydroxyprop-1-en-2-yl)-1H-pyrazol-4-yl]-1,6-naphthyridin-5-yl}-1H-pyrazol-1-yl)-1-(methylsulfonyl)azetidin-3-yl]acetonitrile]
- IC50 [1]: 251 nM
- IC50 [2]: 1630 nM
- IC50 [3]: > 10000 nM

Compound: CS(=O)(=O)N1CC(CC#N)(n2ccc(-c3nc(-c4cnn(CC5(O)COC5)c4)cc4ncccc34)n2)C1 [Example 133, {3-[3-(7-{1-[(3-hydroxyoxetan-3-yl)methyl]-1H-pyrazol-4-yl}-1,6-naphthyridin-5-yl)-1H-pyrazol-1-yl]-1-(methylsulfonyl)azetidin-3-yl}acetonitrile]
- IC50 [1]: 76 nM
- IC50 [2]: 1670 nM
- IC50 [3]: > 10000 nM

Compound: N#CCC1(n2ccc(-c3nc(-c4ncc[nH]4)cc4ncccc34)n2)CN(CC(F)(F)F)C1 [Example 148, [3-{3-[7-(1H-imidazol-2-yl)-1,6-naphthyridin-5-yl]-1H-pyrazol-1-yl}-1-(2,2,2-trifluoroethyl)azetidin-3-yl]acetonitrile]
- IC50 [1]: 235 nM
- IC50 [2]: 8800 nM
- IC50 [3]: > 10000 nM

Compound: N#CCC1(n2ncc(-c3cc(-c4cccc(C(N)=O)c4)cc4ncccc34)n2)CC(C#N)C1 (stereo not drawn) [Example 431, 3-(5-{2-[cis-3-cyano-1-(cyanomethyl)cyclobutyl]-2H-1,2,3-triazol-4-yl}quinolin-7-yl)benzamide]
- IC50 ([2]; JAK Caliper enzyme assay): 572 nM
- IC50 ([3]; JAK Caliper enzyme assay): > 10000 nM
